Assay results from paper PMC9033141, “Beta and Gamma Amino Acid-Substituted Benzenesulfonamides as Inhibitors of Human Carbonic Anhydrases” (Pharmaceuticals, 2022).
Like-named read-outs stand apart in the source and are kept apart here.

Assays:
CAI = biological target: T1, CAI (Homo sapiens, UniProt P00915); experiment: biochemical; format: binding; conditions: FTSA, pH 7.0, 37 °C; read-out: Observed Dissociation Constant (Kd_obs), CAI
T1 construct: made in house; host or cells: E. coli

CAIX = biological target: T2, CAIX (Homo sapiens, UniProt Q16790); experiment: biochemical; format: binding; conditions: FTSA, pH 7.0, 37 °C
T2 construct: made in house
Protocol: (§1) Human CA isozymes were expressed in E. coli (CAI, II, III, IV, VA, VB, VII, XII, XIII, XIV) or mammalian cells (CAVI and CAIX), chromatographically purified following the published protocols [47], and stored at −80 °C. The protein concentration was determined by UV absorption at 280 nm using Beer–Lambert law.
(§2) The QIAGEN Rotor-Gene Q was used to carry out the experiments, with a blue channel used for excitation (365 nm) and detection (460 nm). FTSA in this case relies on an extrinsic probe, 8-anilino-1-naphthalenesulfonate (ANS), to detect the fluorescence increase during protein denaturation, from which protein melting temperature (Tm) can be determined. […] The observed affinity of ligands for CAs was determined by plotting the Tm as a function of ligand concentration and then fitting a curve as described previously [48]. […] Samples were heated from 25 °C to 99 °C at the speed of 1 °C/min.
(§3) The intrinsic thermodynamic parameters were calculated as described in [40]. The intrinsic reaction of inhibitor binding to CA is shown in Equation (1).
(§4) When calculating Kd_int values, these protein and ligand fractions from Equation (1) have to be accounted for (Equations (2) and (3)). The intrinsic dissociation constant is calculated by multiplying Kd_obs value by the corresponding fractions of protein and ligand (Equation (4)). (2) fRSO2NH^−=10^pH−pKa_RSO2NH2/1+10^pH−pKa_RSO2NH2 (3) fCAZnH2O=1−10^pH−pKa_CAZnH2O/1+10^pH−pKa_CAZnH2O (4) Kd_int=Kd_obs×fRSO2NH^−×fCAZnH2O (5) ΔGint0=RTlnKd_int
(§5) The intrinsic standard Gibbs energy changes upon binding were calculated using Equation (5). Here, R—universal ideal gas constant (8.3144 J/mol·K), T—absolute temperature (310.15 K).

CAXII = biological target: T3, CAXII (Homo sapiens, UniProt O43570); experiment: biochemical; format: binding; conditions: FTSA, pH 7.0, 37 °C; read-out: Observed Dissociation Constant (Kd_obs), CAXII
T3 construct: made in house; host or cells: E. coli
Protocol: as §1, §2, §3, §4, §5

CAII = biological target: T4, CAII (Homo sapiens, UniProt P00918); experiment: biochemical; format: binding; conditions: FTSA, pH 7.0, 37 °C; read-out: Observed Dissociation Constant (Kd_obs), CAII;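 further: recombinant human CAII, thermal shift with ANS dye fluorescence, Kd_obs from fitting melting temperature versus ligand concentration, intrinsic values corrected for deprotonated sulfonamide and Zn-bound water fractions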
T4 construct: made in house; host or cells: E. coli

CAXIII = CAXIII (Homo sapiens, UniProt Q8N1Q1); experiment: biochemical; conditions: Observed Dissociation Constant (Kd_obs), FTSA, pH 7.0, 37 °C;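 further: recombinant human CAXIII melting temperature tracked by ANS fluorescence in thermal shift assay, Tm fitted against ligand concentration, intrinsic value corrects Kd for deprotonated sulfonamide and Zn-bound water fractions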
Protocol: as §1, §2, §3, §4, §5

[1] = read-out: Observed Dissociation Constant (Kd_obs), CAIX
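Wherever Observed Dissociation Constant (Kd obs), CAXII is given: recombinant CAXII made in E. coli, ANS-fluorescence thermal shift with affinity fitted from Tm versus ligand concentration, intrinsic energy from Kd_obs corrected for deprotonated sulfonamide and Zn-water fractions.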

T3 sequence (O43570 25-354): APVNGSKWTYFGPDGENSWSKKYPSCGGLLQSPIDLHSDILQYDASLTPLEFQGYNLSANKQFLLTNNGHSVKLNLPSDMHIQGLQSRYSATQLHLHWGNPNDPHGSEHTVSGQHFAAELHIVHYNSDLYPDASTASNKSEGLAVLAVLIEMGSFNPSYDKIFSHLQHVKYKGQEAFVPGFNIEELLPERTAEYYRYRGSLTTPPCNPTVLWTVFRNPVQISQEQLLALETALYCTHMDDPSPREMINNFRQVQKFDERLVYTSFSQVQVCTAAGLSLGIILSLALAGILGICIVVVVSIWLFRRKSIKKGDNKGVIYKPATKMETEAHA
T1 sequence (P00915 whole entry): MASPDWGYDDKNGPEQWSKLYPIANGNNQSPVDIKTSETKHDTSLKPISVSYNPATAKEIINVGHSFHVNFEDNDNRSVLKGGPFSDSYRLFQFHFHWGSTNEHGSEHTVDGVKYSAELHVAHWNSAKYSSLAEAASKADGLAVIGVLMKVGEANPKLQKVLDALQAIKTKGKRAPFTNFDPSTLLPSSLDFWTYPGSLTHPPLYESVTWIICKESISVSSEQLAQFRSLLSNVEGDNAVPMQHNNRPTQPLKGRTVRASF
CAXIII, sequence (Q8N1Q1 whole entry): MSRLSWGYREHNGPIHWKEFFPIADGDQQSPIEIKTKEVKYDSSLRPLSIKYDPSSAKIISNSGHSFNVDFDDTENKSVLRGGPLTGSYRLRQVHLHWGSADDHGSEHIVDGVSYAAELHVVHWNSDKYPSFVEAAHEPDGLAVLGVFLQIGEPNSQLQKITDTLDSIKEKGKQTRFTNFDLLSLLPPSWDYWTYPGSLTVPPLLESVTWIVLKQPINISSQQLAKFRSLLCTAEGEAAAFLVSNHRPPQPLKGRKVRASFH

Row | SMILES | Kd (CAI) | Kd (CAIX; [1]) | Kd (CAXII) | Kd (CAII) | Kd (CAXIII) | melting point | Kd (CAIX; Observed Dissociation Constant (Kd_obs), CAIX)
1 | NS(=O)(=O)c1ccc(NCC(CC(=O)NN=Cc2cccc(Cl)c2)C(=O)NN=Cc2cccc(Cl)c2)cc1 (stereo not drawn) [Compound 11a, 4-((2-(2-(3-Chlorobenzylidene)hydrazine-1-carbonyl)-4-(2-(3-chlorobenzylidene)hydrazineyl)-4-oxobutyl)amino)benzenesulfonamide] | 20 µM | 1 µM | 100 µM | 3.3 µM | 5 µM | 190 to 191 °C | 
2 | NS(=O)(=O)c1ccc(NCC(CC(=O)NN=Cc2cccc(O)c2)C(=O)NN=Cc2cccc(O)c2)c(Cl)c1 (stereo not drawn) [Compound 8b, 3-Chloro-4-((2-(2-(3-hydroxybenzylidene)hydrazine-1-carbonyl)-4-(2-(3-hydroxybenzylidene)hydrazineyl)-4-oxobutyl)amino)benzenesulfonamide] | 1 µM | 0.1 µM | 20 µM | 0.25 µM | 0.2 µM | 119 to 120 °C | 
3 | NS(=O)(=O)c1ccc(NCC(CC(=O)NN=Cc2ccccc2O)C(=O)NN=Cc2ccccc2O)c(Cl)c1 (stereo not drawn) [Compound 7b, 3-Chloro-4-((2-(2-(2-hydroxybenzylidene)hydrazine-1-carbonyl)-4-(2-(2-hydroxybenzylidene)hydrazineyl)-4-oxobutyl)amino)benzenesulfonamide] | 1 µM | 0.067 µM | 5 µM | 0.17 µM | 0.17 µM | 204 to 205 °C | 
4 | CC(=NNC(=O)CC(CNc1ccc(S(N)(=O)=O)cc1)C(=O)NN=C(C)c1ccccc1)c1ccccc1 (stereo not drawn) [Compound 5a, 4-((4-Oxo-2-(2-(1-phenylethylidene)hydrazine-1-carbonyl)-4-(2-(1-phenylethylidene)hydrazineyl)butyl)amino)benzenesulfonamide] | 8.3 µM | 0.59 µM | 0.5 µM | 1.3 µM | 5 µM | 162 to 163 °C | 
5 | NS(=O)(=O)c1ccc(NCC(CC(=O)NN=Cc2ccc(F)cc2)C(=O)NN=Cc2ccc(F)cc2)c(Cl)c1 (stereo not drawn) [Compound 13b, 3-Chloro-4-((2-(2-(4-fluorobenzylidene)hydrazine-1-carbonyl)-4-(2-(4-fluorobenzylidene)hydrazineyl)-4-oxobutyl)amino)benzenesulfonamide] | 2.6 µM |  | 23 µM | 0.39 µM | 0.34 µM | 207 to 208 °C | 0.33 µM

The next lines start with the values.

Row | Kd (CAI) | Kd (CAIX; [1]) | Kd (CAXII) | Kd (CAII) | Kd (CAXIII) | melting point | Kd (CAIX; Observed Dissociation Constant (Kd_obs), CAIX) | SMILES
6 | 36 µM | 3.3 µM | 79 µM | 5.4 µM | 19 µM | 256 to 257 °C |  | NS(=O)(=O)c1ccc(NCC(CC(=O)NN=Cc2ccc([N+](=O)[O-])cc2)C(=O)NN=Cc2ccc([N+](=O)[O-])cc2)cc1 (stereo not drawn) [Compound 17a, 4-((2-(2-(4-Nitrobenzylidene)hydrazine-1-carbonyl)-4-(2-(4-nitrobenzylidene)hydrazineyl)-4-oxobutyl)amino)benzenesulfonamide]
7 | 2.9 µM | 0.059 µM | 1.7 µM | 0.25 µM | 1.3 µM | 151 to 152 °C |  | Cn1c(CC(CNc2ccc(S(N)(=O)=O)cc2Cl)c2n[nH]c(=S)n2C)n[nH]c1=S (stereo not drawn) [Compound 24b, 4-((2,3-bis(4-Methyl-5-thioxo-4,5-dihydro-1H-1,2,4-triazol-3-yl)propyl)amino)-3-chlorobenzenesulfonamide]
8 | 43 µM | 0.91 µM | 3.3 µM | 6.7 µM | 19 µM | 170 to 171 °C |  | Cn1c(CC(CNc2ccc(S(N)(=O)=O)cc2)c2n[nH]c(=S)n2C)n[nH]c1=S (stereo not drawn) [Compound 24a, 4-((2,3-bis(4-Methyl-5-thioxo-4,5-dihydro-1H-1,2,4-triazol-3-yl)propyl)amino)benzenesulfonamide]
